According to US10933033B2, “Composition for preventing or reducing nephrotoxicity and use thereof” (KOREA INSTITUTE OF SCIENCE AND TECHNOLOGY, priority 2018, dated 2021):

Legend:
LLC-PK1 cells [1] = assay: Image-based cell analysis of apoptosis (Annexin V / PI, Tali cytometer); details: for Apoptosis (%): 2 h pre-incubation, then 25 μM cisplatin for 24 h, LLC-PK1
Protocol: The cultured LLC-PK1 cells in DMEM were dispensed in a 6-well plate at a density of 4×10^5 cells in 3 mL of the same DMEM medium per each well and then incubated under the same conditions for 24 hours to stabilize the cells.
After incubation under the same conditions for about 24 hours, the cells were collected using trypsin, washed once with phosphate-buffered saline (PBS), resuspended in 100 μL of annexin-binding buffer ([…], 140 mM NaCl, […], pH 7.4) to reach a cell number of about 5×10^5 to about 5×10^6 cells/mL, and then mixed with 5 μL of Annexin V Alexa Fluor 488 and left in the dark at room temperature for about 20 minutes to fix and stain the cells. The resulting cell suspension was centrifuged to discard the supernatant and collect precipitated cell pellets. The precipitated cell pellets were resuspended in 100 μL of annexin-binding buffer to obtain a resuspension.
Next, 1 μL of propidium iodide (PI) was added to the resuspension, mixed thoroughly, and then left in the dark at room temperature for about 1 minute to about 5 minutes to fix and stain the cells. The stained cells were analyzed using a Tali Image-based cytometer and TaliPCApp (version 1.0) software.
Cells were divided into live cells (annexin V-negative/PI-negative), early apoptotic cells (annexin V-positive/PI-negative), and late apoptotic or necrotic cells (annexin V-positive/PI-positive), and total apoptotic cells were expressed as a ratio of annexin V-positive cells to PI-negative or PI-positive cells.

LLC-PK1 cells [2] = assay: Protective effect against cisplatin nephrotoxicity, cell viability (CCK-8); type: cell-based; details: for effect on cell viability that had been reduced with cisplatin: 25 μM cisplatin, LLC-PK1, concentration-dependent; for viability at 5 µg/mL / viability at 10 µM / viability at 10 µg/mL / viability at 25 µg/mL / viability at 50 µg/mL / viability at 100 µg/mL: Sus scrofa, LLC-PK1
Protocol: First, LLC-PK1 cells were cultured in a Dulbecco's modified Eagle's medium (DMEM) (available from Cellgro, Manassas, Va., USA) in which 10% of fetal bovine serum (FBS), 100 units/mL of penicillin G, and 100 μg/mL of streptomycin were added, in an incubator (95% air and 5% CO2) maintained at about 37° C. The used FBS, penicillin G, and streptomycin were purchased from Gibco BRL Life Technologies Inc. The cultured LLC-PK1 cells were dispensed in a 96-well plate at a density of 1×10^4 cells in 100 μL of the same DMEM medium per each well and then stabilized for about 22 hours.
After 1 hour, absorbance at a detection wavelength of 450 nm was measured using a BIO-TEK microplate reader (available from Winooski, Vt., USA) to thereby measure cell viability.

Structure (SMILES)	apoptosis of the LLC-PK1 cells caused by cisplatin (LLC-PK1 cells [1]; 5 μM and 10 μM, 25 μM cisplatin)	Apoptosis (%) (LLC-PK1 cells [1]; 5 μM)	Apoptosis (%) (LLC-PK1 cells [1]; 10 μM)	effect on cell viability that had been reduced with cisplatin (LLC-PK1 cells [2])	viability at 5 µg/mL (LLC-PK1 cells [2]) [%]	viability at 10 µM (LLC-PK1 cells [2]) [%]	viability at 10 µg/mL (LLC-PK1 cells [2]) [%]	viability at 25 µg/mL (LLC-PK1 cells [2]) [%]	viability at 50 µg/mL (LLC-PK1 cells [2]) [%]	viability at 100 µg/mL (LLC-PK1 cells [2]) [%]
O=C1CC2C(=C3c4c2ccc(O)c4[C@H](O)C[C@@H]3O)c2cccc(O)c21 (some centres unmarked) [Hypoxylonol F]	significantly reduced	26.3	6.6	significantly increase cell viability	86.4	≥ 90	90.9	92.2	92.3	94.4
O=C1CC2C(=C3c4c2ccc(O)c4[C@@H](O)C[C@@H]3O)c2cccc(O)c21 (some centres unmarked) [Hypoxylonol C]	–	–	–	significantly increase cell viability	76.9	≥ 85	86.6	89.3	89.5	92.5
Oc1cccc2c(-c3ccc(O)c4c(O)cccc34)ccc(O)c12 [BNT, 1,1′-binaphthalene-4,4′,5,5′-tetrol]	–	–	–	significantly increase cell viability	63.3	–	65.1	65.4	71.5	75.1
